Tests used:
Assay type in all cases: cell-based
[1] = test system: Wnt activity (Sp5-Luc reporter, SW480 colon carcinoma cells); assay: Wnt activity screening assay: Sp5-Luc reporter gene assay in SW480 cells; conditions: Homo sapiens; for EC50: SW480 cells, overnight incubation; for inhibition at 10 µM: given where EC50 >10 μM, SW480, read-out: percent inhibition at 10 μM
From the text: The screening assay for Wnt activity is described as follows. Reporter cell lines can be generated by stably transducing cancer cell lines (e.g., colon cancer) or primary cells (e.g., IEC-6 intestinal cells) with a lentiviral construct that includes a Wnt-responsive promoter driving expression of the firefly luciferase gene.
SW480 colon carcinoma cells were transduced with a lentiviral vector expressing luciferase with a human Sp5 promoter consisting of a sequence of eight TCF/LEF binding sites. SW480 cells stably expressing the Sp5-Luc reporter gene and a hygromycin resistance gene were selected by treatment with 150 μg/mL of hygromycin for 7 days. These stably transduced SW480 cells were expanded in cell culture and used for all further screening activities. Each compound was dissolved in DMSO as a 10 mM stock and used to prepare compound source plates. Serial dilution (1:3, 10-point dose-response curves starting from 10 μM) and compound transfer was performed using the ECHO 550 (Labcyte, Sunnyvale, Calif.) into 384-well white solid bottom assay plates (Greiner Bio-One) with appropriate DMSO backfill for a final DMSO concentration of 0.1%. For Sp5-Luc reporter gene assays, the cells were plated at 4,000 cells/well in 384-well plates with medium containing 1% fetal bovine serum and incubated overnight at 37° C. and 5% CO2. Following incubation, 20 μl of BrightGlo luminescence reagent (Promega) was added to each well of the 384-well assay plates. The plates were placed on an orbital shaker for 2 min and then luminescence was quantified using the Envision (Perkin Elmer) plate reader. Readings were normalized to DMSO only treated cells, and normalized activities were utilized for EC50 calculations using the dose-response log (inhibitor) vs. response -variable slope (four parameters) nonlinear regression feature available in GraphPad Prism 5.0 (or Dotmatics). For EC50 of >10 μM, the percent inhibition at 10 μM is provided.

SW480 colon cancer cells = assay: Cell viability assay (CellTiter-Blue); conditions: Homo sapiens; for EC50: 96 h, SW480 cell viability, four days, CellTiter-Blue; for inhibition at 10 µM: given where EC50 >10 μM, SW480 viability, read-out: percent inhibition at 10 μM
Method: Representative compounds were screened using the following assay procedure to assess the effect on cell viability as described below.
Each compound was dissolved in DMSO as a 10 mM stock and used to prepare compound source plates. Serial dilution (1:3, 8-point dose-response curves from 10 μM to 0.0045 μM) and compound transfer was performed using the ECHO 550 (Labcyte, Sunnyvale, Calif.) into 96-well clear bottom, black-walled plates (Corning-Costar).
Approximately 2×10^3 SW480 colon cancer cells were seeded into each well and allowed to incubate in the presence or absence of compound for four days at 37° C./5% CO2. Eight replicates of DMSO-treated cells served as controls and cells treated with compound were performed in duplicate.
After incubation, 20 μL of CellTiter-Blue (Promega) was added to each well allowed to incubate for approximately 3 hours. This reagent was a buffered solution which contains resazurin, metabolically active cells were able to reduce rezarurin (blue) into resorufin (pink) which was highly fluorescent. This measured fluorescence was used as a readout for cell viability.
After incubation, the plates were read at Ex 560 nm Em 590 nm (Cytation 3, BioTek). Dose-response curves were generated and EC50 concentration values were calculated using non-linear regression curve fit in the GraphPad Prism (San Diego, Calif.) or Dotmatics' Studies Software (Bishops Stortford, UK). For EC50 of >10 μM, the percent inhibition at 10 μM is provided.

IL-6 (THP-1 cells) = assay: IL-6 inhibition in LPS-stimulated THP-1 cells (HTRF); conditions: Homo sapiens; for EC50: THP-1 cells, LPS 500 ng/mL, 22 hours, IL6 HTRF; for inhibition at 10 µM: given where EC50 >10 μM, THP-1, IL6, read-out: percent inhibition at 10 μM
Method: Human Monocyte Cell Culture: Human monocyte cell line (THP-1 cells; Catalog # TIB-202, ATCC, Manassas, Va.) were cultured in Roswell Park Memorial Institute (RPMI) 1640 Medium (Catalog #21870-100, Buffalo, N.Y.) with 1% L-glutamine, 1% HEPES, 1% Sodium Pyruvate, 2% Sodium Bicarbonate supplemented with 100 units/mL penicillin, 50 μg/mL streptomycin, 2-mercaptoethanol (0.05 mM) [basal medium] and 10% fetal bovine serum (Catalog #16140089, Life Technologies, Carlsbad, Calif.) at 37° C. and 5% CO2.
Compound Screening: THP-1 cells were cultured in basal media with 1% FBS for 24 hours before the start of the assay. Each compound was dissolved in DMSO as a 10 mM stock and used to prepare compound source plates. Serial dilution (1:3, 10-point dose-response curves starting from 10 μM) and compound transfer was performed using the ECHO 550 (Labcyte, Sunnyvale, Calif.) into 384-well white low volume assay plates (Greiner Bio-One) with appropriate DMSO backfill for a final DMSO concentration of 0.1%. THP-1 cells were plated at 5000 cells/well in the 384-well plates and incubated at 37° C. for 2 h. 500 ng/mL of LPS was added after 2 hours and cells were incubated for another 22 hours at 37° C. Plates were spun in a centrifuge for 1 minute at […] and a mixture of anti-IL6 XL665, and anti-IL6 Cryptate diluted in reconstitution buffer (Cisbio Inc.) was added to each well. Following incubation for 3 hrs at room temperature, Homogeneous Time-Resolved Fluorescence (HTRF) was measured using the Envision (Perkin Elmer) at 665 nm and […]. The ratio of fluorescence at 665 nm to 620 nm was used as a readout for IL6 quantification. All samples were processed in duplicate. Readings were normalized to DMSO treated cells and normalized activities were utilized for EC50 calculations using the dose-response log (inhibitor) vs. response —variable slope (four parameters) nonlinear regression feature available in GraphPad Prism 5.0 (or Dotmatics). For EC50 of >10 μM, the percent inhibition at 10 μM is provided.

Row | SMILES | EC50 [1] [µM] | EC50 (SW480 colon cancer cells) [µM] | EC50 (IL-6 (THP-1 cells)) [µM] | inhibition at 10 µM [1] [%] | inhibition at 10 µM (SW480 colon cancer cells) [%] | inhibition at 10 µM (IL-6 (THP-1 cells)) [%]
1 | Fc1cccc(-c2ccnc3[nH]c(-c4n[nH]c5ccc(-c6cccnc6)nc45)cc23)c1 [Compound 4, 3-(4-(3-Fluorophenyl)-1H-pyrrolo[2,3-b]pyridin-2-yl)-5-(pyridin-3-yl)-1H-pyrazolo[4,3-b]pyridine] | > 10 | > 10 | 1.84 | 47.3 | 6.4 | 
2 | CC(C)(C)C(=O)Nc1cncc(-c2ccc3[nH]nc(-c4cc5c(-c6cccc(F)c6)ccnc5[nH]4)c3n2)c1 [Compound 8, N-(5-(3-(4-(3-Fluorophenyl)-1H-pyrrolo[2,3-b]pyridin-2-yl)-1H-pyrazolo [4,3-b]pyridin-5-yl)pyridin-3-yl)pivalamide] | > 10 | > 10 | > 10 | 14.3 | 18.4 | 13.7
3 | Fc1cccc(-c2ccnc3[nH]c(-c4n[nH]c5ccc(-c6cncc(CN7CCCCC7)c6)nc45)cc23)c1 [Compound 15, 3-(4-(3-Fluorophenyl)-1H-pyrrolo[2,3-b]pyridin-2-yl)-5-(5-(piperidin-1-ylmethyl)pyridin-3-yl)-1H-pyrazolo[4,3-b]pyridine] | > 10 | > 10 | > 10 | 8 | 29.9 | 41
4 | Cc1ccncc1-c1ccc2[nH]nc(-c3cc4c(-c5ccc(F)cc5)ccnc4[nH]3)c2n1 [Compound 33, 3-(4-(4-Fluorophenyl)-1H-pyrrolo[2,3-b]pyridin-2-yl)-5-(4-methylpyridin-3-yl)-1H-pyrazolo[4,3-b]pyridine] | > 10 | > 10 | > 10 | 16.2 | 15.9 | 5.4
5 | O=C(Nc1cncc(-c2ccc3[nH]nc(-c4cc5c(-c6ccc(F)cc6)ccnc5[nH]4)c3n2)c1)c1ccccc1 [Compound 39, N-(5-(3-(4-(4-Fluorophenyl)-1H-pyrrolo[2,3-b]pyridin-2-yl)-1H-pyrazolo [4,3-b]pyridin-5-yl)pyridin-3-yl)benzamide] | > 10 | > 10 | > 10 | 0 | 11.1 | 7.7
6 | Fc1ccc(-c2ccnc3[nH]c(-c4n[nH]c5ccc(-c6cncc(CN7CCC(F)(F)C7)c6)nc45)cc23)cc1 [Compound 54, 5-(5-((3,3-Difluoropyrrolidin-1-yl)methyl)pyridin-3-yl)-3-(4-(4-fluorophenyl)-1H-pyrrolo[2,3-b]pyridin-2-yl)-1H-pyrazolo[4,3-b]pyridine] | > 10 | > 10 | > 10 | 10.2 | 27.8 | 34.8

More lines, main results first:

Row | EC50 [1] [µM] | EC50 (SW480 colon cancer cells) [µM] | EC50 (IL-6 (THP-1 cells)) [µM] | SMILES | inhibition at 10 µM [1] [%] | inhibition at 10 µM (SW480 colon cancer cells) [%] | inhibition at 10 µM (IL-6 (THP-1 cells)) [%]
7 | > 10 | > 10 | > 10 | Fc1ccc(-c2ccnc3[nH]c(-c4n[nH]c5ccc(-c6cncnc6)nc45)cc23)cc1 [Compound 55, 3-(4-(4-Fluorophenyl)-1H-pyrrolo[2,3-b]pyridin-2-yl)-5-(pyrimidin-5-yl)-1H-pyrazolo[4,3-b]pyridine] | 32 | 20.5 | 14.1
8 | 0.517 | > 10 | 0.1 | CC(C)CC(=O)Nc1cncc(-c2ccc3[nH]nc(-c4cc5c(-c6ccccc6F)ccnc5[nH]4)c3n2)c1 [Compound 58, N-(5-(3-(4-(2-Fluorophenyl)-1H-pyrrolo[2,3-b]pyridin-2-yl)-1H-pyrazolo [4,3-b]pyridin-5-yl)pyridin-3-yl)-3-methylbutanamide] |  | 11.5 | 
9 | > 10 | > 10 | 1.08 | CN(C)Cc1cncc(-c2ccc3[nH]nc(-c4cc5c(-c6ccccc6F)ccnc5[nH]4)c3n2)c1 [Compound 69, 1-(5-(3-(4-(2-Fluorophenyl)-1H-pyrrolo[2,3-b]pyridin-2-yl)-1H-pyrazolo [4,3-b]pyridin-5-yl)pyridin-3-yl)-N,N-dimethylmethanamine] | 8.3 | 33.5 | 
10 | > 10 | 4.7 | > 10 | O=C(Nc1cncc(-c2ccc3[nH]nc(-c4cc5c(-c6ccccc6F)ccnc5[nH]4)c3n2)c1)C1CC1 [Compound 76, N-(5-(3-(4-(2-Fluorophenyl)-1H-pyrrolo[2,3-b]pyridin-2-yl)-1H-pyrazolo [4,3-b]pyridin-5-yl)pyridin-3-yl)cyclopropanecarboxamide] | 37.3 |  | 42.2
11 | > 10 | 2.06 | > 10 | Fc1ccccc1-c1ccnc2[nH]c(-c3n[nH]c4ccc(-c5cncc(CNCc6ccccc6)c5)nc34)cc12 [Compound 80, N-Benzyl-1-(5-(3-(4-(2-fluorophenyl)-1H-pyrrolo[2,3-b]pyridin-2-yl)-1H-pyrazolo[4,3-b]pyridin-5-yl)pyridin-3-yl)methanamine] | 29 |  | 18.2
12 | > 10 | > 10 | 0.006 | Fc1ccccc1-c1ccnc2[nH]c(-c3n[nH]c4ccc(-c5ccccn5)nc34)cc12 [Compound 84, 3-(4-(2-Fluorophenyl)-1H-pyrrolo[2,3-b]pyridin-2-yl)-5-(pyridin-2-yl)-1H-pyrazolo[4,3-b]pyridine] | 3 | 16.5 | 
13 | > 10 | > 10 | > 10 | c1cncc(-c2ccc3[nH]nc(-c4cc5c(-c6cccnc6)ccnc5[nH]4)c3n2)c1 [Compound 88, 5-(Pyridin-3-yl)-3-(4-(pyridin-3-yl)-1H-pyrrolo[2,3-b]pyridin-2-yl)-1H-pyrazolo[4,3-b]pyridine] | 10.1 | 31.2 | 38.7
14 | > 10 | > 10 | > 10 | CN(C)c1cncc(-c2ccc3[nH]nc(-c4cc5c(-c6cccnc6)ccnc5[nH]4)c3n2)c1 [Compound 91, N,N-Dimethyl-5-(3-(4-(pyridin-3-yl)-1H-pyrrolo[2,3-b]pyridin-2-yl)-1H-pyrazolo[4,3-b]pyridin-5-yl)pyridin-3-amine] | 18.2 | 3.5 | 36.3

— patent publication US10206909B2, “3-(1H-pyrrolo[2,3-B]pyridin-2-yl)-1H-pyrazolo[4,3-B]pyridines and therapeutic uses thereof” (Samumed, LLC, priority 2015, dated 2019)
